Results on 36 compounds are retold here after the Deep4Chem optical property database.

Several values for one entry are separate records, joined by “and”; a condition that tells them apart may be missing. Identical values can stand only once.

The nature of the series: solvent given as SMILES.

`CCCCCCn1c2c(c3cc(-c4ccc5ccc6cccc7ccc4c5c67)ccc31)-c1c(c3cc(-c4ccc5ccc6cccc7ccc4c5c67)ccc3n1CCCCCC)-c1c(c3cc(-c4ccc5ccc6cccc7ccc4c5c67)ccc3n1CCCCCC)-c1c-2c2cc(-c3ccc4ccc5cccc6ccc3c4c56)ccc2n1CCCCCC` displayed an emission maximum (in ClCCl) of 382 nm.
Compound `CCCCN(CCCC)c1ccc(/C=C/c2ccc3nc(-c4ccccc4)c(/C=C/c4ccc(N(C)C)cc4)nc3c2)cc1` returned an emission maximum (in C1COCCO1) of 540 nm, an emission maximum (in CC#N) of 650 nm and an emission maximum (in ClCCl) of 627 nm.
`CCN(CC)c1ccc2cc(-c3nc4cc(C(=O)Nc5ccccc5[N+](=O)[O-])ccc4o3)c(=O)oc2c1`: the emission maximum (in ClCCl) amounted to 498 nm.
`CCN1/C(=C\C2=C([O-])C(=C/C3=[N+](CC)c4ccccc4C3(C)C)/C2=O)C(C)(C)c2ccccc21` displayed an emission maximum (in ClC(Cl)Cl) of 643 nm.
As for `Cc1ccc(NC(=O)c2sc(Br)nc2C)cc1`, the emission maximum by setting is: (in C1CCOC1) 407.5 nm; (in CC#N) 399.5 nm; (in CCCCCC) 399 nm; (in CCOC(C)=O) 404.5 nm; (in CN(C)C=O) 451 nm; (in CO) 403 nm. In addition, the emission maximum stood at 401.5 nm (in CS(C)=O) and 412.4 nm (in ClC(Cl)Cl).
Regarding `Cc1cc(C2=C(c3cc(C)sc3C)P(=O)(c3ccccc3)c3ccccc32)c(C)s1` (stereo not given), for the setting “in C1CCOC1”, the emission maximum turned out to be 468 nm.
For `COc1ccc(-c2nc(-c3ccccc3O)c(-c3ccccc3O)n2-c2ccc(C)cc2)cc1`, the emission maximum by setting is: (in C1CCOC1) 357 nm; (in CS(C)=O) 389 nm; (in ClC(Cl)Cl) 410 nm; (in ClCCl) 347 nm.
As for `CC[NH+](CC)c1ccc(-c2nc3c4ccccc4n(C)c3nc2-c2ccc(B(c3c(C)cc(C)cc3C)c3c(C)cc(C)cc3C)cc2)cc1`, the emission maximum (in C1CCOC1) was found to be 451.19 nm.
Turning to `c1ccc(-c2nnc(-c3ccc(N4c5ccccc5N(c5ccccc5)c5ccccc54)cc3)o2)cc1`, the emission maximum (in Cc1ccccc1) is 577 nm and the emission maximum (in c1cc(-n2c3ccccc3c3ccccc32)cc(-n2c3ccccc3c3ccccc32)c1) is listed as 550 nm.
For the compound `FC(F)(F)c1cc2n(n1)[B-]1(c3ccccc3Oc3ccccc31)[n+]1ccc3ccccc3c1-2`, the emission maximum by setting is: (in C1CCCCC1) 473 nm; (in Cc1ccccc1) 517 nm; (in ClCCl) 543 nm.
On to `Cc1ccc(C2=C3C=c4c(oc5ccccc45)=[N+]3[B-](F)(F)n3c2cc2c4ccccc4oc23)cc1`, for which the emission maximum runs as follows: (in C1CCCCC1) 596.5 nm; (in C1CCOC1) 596.5 nm; (in CC#N) 595.5 nm; (in CCOC(C)=O) 594.5 nm; (in CN(C)C=O) 598.5 nm; (in CO) 594.5 nm. Further, the emission maximum runs as follows: (in Cc1ccccc1) 603 nm; (in ClCCl) 599 nm and 597 nm.
For the setting “in c1ccccc1”, `CCOC(=O)CSc1nc2c(c(C#N)c1C#N)CCCC2` had an emission maximum of 407 nm.
For `O=P1(c2ccccc2)C(c2cc(C(F)(F)F)cc(C(F)(F)F)c2)=Cc2c3ccc4cccc5ccc(c6cc(-c7ccccc7)n1c26)c3c45` (stereo not given), the emission maximum reads like this: (in C1CCCCC1) 501 nm; (in C1CCOC1) 521 nm; (in C1COCCO1) 514 nm; (in CC#N) 531 nm; (in CC(C)=O) 526 nm; (in CO) 524 nm. Besides, the emission maximum by setting is: (in Cc1ccccc1) 514 nm; (in ClC(Cl)Cl) 514 nm; (in ClCCl) 521 nm.
`F[B-]1(F)n2c(c3ccccc3c2-c2ccccc2)C(c2ccccc2)=C2c3ccccc3C(c3ccccc3)=[N+]21` displayed an emission maximum (in ClCCl) of 664 nm.
Turning to `COc1ccc(C2=[N+]3C(=Nc4c(-c5cc(OC)c(OC)c(OC)c5)c(Br)c(-c5ccc(OC)cc5)n4[B-]3(F)F)C(c3cc(OC)c(OC)c(OC)c3)=C2Br)cc1`, the emission maximum (in Cc1ccccc1) worked out at 723 nm.
As to `Cc1csc2[n+]1[B-](F)(F)n1c(c3cccc4cccc1c43)=N2`, the emission maximum is, setting by setting: (in C1CCOC1) 500 nm; (in CC#N) 499 nm; (in CCCCCC) 488 nm; (in Cc1ccccc1) 502 nm; (in ClCCl) 527 nm.
Consider `COc1cc2c(cc1OC)C1=C[C@H](c3ccccc3)C3(C(C#N)=C(C#N)N1CC2)c1cc(Cl)ccc1-c1ccc(Cl)cc13`, for which the emission maximum (in ClCCl) was determined as 389 nm.
`c1ccc(-c2nc(-c3ccccc3)nc(-c3ccc(N4c5ccccc5CCc5ccccc54)cc3)n2)cc1`: for the setting “in Cc1ccccc1”, the emission maximum is listed as 422.22 nm.
As to `CN(C)c1ccc(C2=Nc3sc4cc(Cl)ccc4[n+]3[B-](F)(F)O2)cc1`, the emission maximum is 477 nm (in C1CCOC1); 491 nm (in CC#N); 488 nm (in CC(C)=O); 456 nm (in Cc1ccccc1); 473 nm (in ClCCl).
As to `CCN(CC)c1ccc2cc(/C=C/C(=C(C#N)C#N)c3ccc(N(c4ccccc4)c4ccccc4)cc3)c(=O)oc2c1`, the emission maximum runs as follows: (in CC(C)=O) 621 nm; (in CCOC(C)=O) 599 nm; (in CN(C)C=O) 636 nm; (in CS(C)=O) 643 nm; (in Cc1ccccc1) 576 nm; (in ClCCl) 581 nm.
With `CCOC(=O)CCCCCn1c2ccc(C)cc2c(=O)c2cc3c(cc21)c(=O)c1cc(C)ccc1n3CCCCCC(=O)OCC`, the emission maximum (in CO) amounted to 565 nm.
Turning to `CCOc1ccc2c(-c3nc(-c4ccccc4F)no3)cc(=O)oc2c1`, the emission maximum is, setting by setting: (in CCO) 465 nm; (in ClC(Cl)Cl) 453 nm.
For `COc1ccc(-c2ccc(-c3ccc(C#N)s3)s2)cc1`, the emission maximum came out at 445 nm (in C1CCCCC1); 455 nm (in C1COCCO1); 476 nm (in CC#N); 471 nm (in CC(C)O); 471 nm (in CCCCO); 474 nm (in CCO). Besides, the emission maximum is reported as 461 nm (in CCOC(C)=O); 479 nm (in CN(C)C=O); 476 nm (in CO); 484 nm (in CS(C)=O); 450 nm (in Cc1ccccc1); 465 nm (in ClC(Cl)Cl). Moreover, the emission maximum (in ClCCl) was determined as 468 nm and the emission maximum (in O) amounted to 529 nm.
As for `COC(=O)c1ccc(C2=C3C=CC(C)=[N+]3[B-](F)(F)n3c(C)ccc32)cc1`, the emission maximum is, setting by setting: (in C1CCCCC1) 533 nm; (in C1CCOC1) 536 nm; (in CC#N) 531 nm; (in CCOC(C)=O) 533 nm; (in CO) 533 nm; (in Cc1ccccc1) 538 nm. For the setting “in ClC(Cl)Cl”, the emission maximum is recorded as 538 nm.
`CC(=O)O[B-]1(OC(C)=O)OC(/C=C/C=C/c2ccccc2)=CC(/C=C/C=C/c2ccccc2)=[O+]1`: the emission maximum by setting is: (in C1CCOC1) 531 nm; (in CC#N) 550 nm; (in CC(C)=O) 544 nm; (in CS(C)=O) 558 nm; (in Cc1ccccc1) 523 nm; (in ClC(Cl)Cl) 543 nm. This compound showed an emission maximum (in ClCCl) of 545 nm.
Regarding `CC(C)(C)c1ccc(-c2nc3c4ccc(-c5ccc6ccc7cccc8ccc5c6c78)cc4c4cc(-c5ccc6ccc7cccc8ccc5c6c78)ccc4c3n2-c2ccc(C(C)(C)C)cc2)cc1`, the emission maximum (in C1CCOC1) came to 442 nm; the emission maximum (in C1COCCO1) was 432 nm; the emission maximum (in CC#N) was 460 nm; the emission maximum (in CCCCCC) was found to be 428 nm; the emission maximum (in CCCCOCCCC) stood at 427 nm; the emission maximum (in CCN(CC)CC) was found to be 428 nm. For the same compound, the emission maximum by setting is: (in CCOC(C)=O) 440 nm; (in CCOCC) 432 nm; (in CN(C)C=O) 459 nm; (in Cc1ccccc1) 433 nm; (in ClC=C(Cl)Cl) 437 nm; (in ClCCl) 450 nm.
Compound `O=c1c2cc(F)c(O)cc2n(Cc2ccccc2)c2cc(O)c(F)cc12` had an emission maximum (in CCO) of 431 nm.
`Cc1ccc2oc(-c3cc4cc(C)ccc4oc3=O)cc2c1`: the emission maximum by setting is: (in CC#N) 445 nm; (in CCOC(C)=O) 436 nm; (in CS(C)=O) 448 nm; (in Cc1ccccc1) 436 nm; (in O) 498 nm.
For the compound `COc1ccc(C2=[N+]3C(=Nc4c(-c5cc(OC)c(OC)c(OC)c5Br)c(-c5ccc(C(C)(C)C)cc5)c(-c5ccc(OC)cc5)n4[B-]3(F)F)C(c3cc(OC)c(OC)c(OC)c3Br)=C2c2ccc(C(C)(C)C)cc2)cc1`, the emission maximum (in Cc1ccccc1) is listed as 740 nm.
In the case of `CCN(CC)c1ccc(/C=N/C2CCCCC2/N=C/c2ccc(N(CC)CC)cc2O)c(O)c1` (stereo not given), the emission maximum (in CC#N) is given as 426 nm, the emission maximum (in CN(C)C=O) is 432 nm and the emission maximum (in ClCCl) worked out at 461 nm.
In the case of `c1ccc(N(c2ccccc2)c2ccc3c(ccc4nc5ccc6cc(N(c7ccccc7)c7ccccc7)ccc6c5nc43)c2)cc1`, the emission maximum reads like this: (in C1CCCCC1) 492 nm; (in C1CCOC1) 552 nm; (in CN(C)C=O) 626 nm; (in Cc1ccccc1) 512 nm; (in ClCCl) 576 nm.
As to `COc1ccc2cc(C#CC3=C4CCc5ccccc5C4=[O+][B-](F)(F)O3)ccc2c1`, the emission maximum (in ClCCl) is given as 566 nm.
Turning to `C[Si](C)(C)C#Cc1cc2ccc3cc(C#C[Si](C)(C)C)cc4ccc(c1)c2c34`, the emission maximum (in Cc1ccccc1) was 407 nm.
`CCCCCCCCOc1cc(/C=C/c2ccncc2)c(OCCCCCCCC)cc1/C=C/c1ccncc1` yielded an emission maximum (in ClCCl) of 470 nm.
In the case of `CCC1=C(C)C(=O)n2c1cc1c(c(C)c(C(=O)OCC(C)C)n1CC(C)C)c2=O`, the emission maximum (in C1CCCCC1) was 437 nm; the emission maximum (in CO) worked out at 498 nm; the emission maximum (in CS(C)=O) is given as 479 nm; the emission maximum (in ClC(Cl)Cl) is on record as 457 nm; the emission maximum (in c1ccccc1) is recorded as 446 nm.
As for `BrC1=CN2C[n+]3cc(Br)c4ccccc4c3N=C2c2ccccc21`, for the setting “in CO”, the emission maximum was determined as 502 nm.
